Experimental data as given in publication PMC9800739, “Epigenetic drugs in somatostatin type 2 receptor radionuclide theranostics and radiation transcriptomics in mouse pheochromocytoma models” (Theranostics, 2023).
Entries after “also recorded” stand apart in the source; their conditions may differ. Read-outs that look alike come from different tables or passages of the source.

Key:
MPC tumors [1] = test: Tumor growth of MPC allografts; type: in vivo, mouse; conditions: PET cohorts; for Vtumor, ET start: day 0 baseline, mean ± SEM; for Vtumor, ET start + 4 d: day 4, mean ± SEM
Procedure: (§1) During anesthesia, animals were continuously warmed at 37°C. […] Animals were sacrificed using CO2 inhalation and cervical dislocation. […]
(§2) 70 1.1 Preparation of epigenetic drugs
(§3) 71 For in vitro application, VPA was freshly dissolved in cell culture medium and added to the
(§4) 72 cells at final concentrations between 10‒5 and 10‒2 mol/L. DAC was dissolved in H2O to obtain
(§5) 73 a 10‒4 mol/L stock solution that was stored at ‒20 °C. For each experiment, aliquots of the DAC
(§6) 74 stock were thawed and added to the cells at final concentrations between 10‒8 and 10‒5 mol/L.
(§7) 75 For in vivo application, VPA was dissolved at 0.26 mol/L in Dulbecco’s phosphate-buffered
(§8) 76 saline. DAC was dissolved at 0.04 mol/L in acetic acid (9.6 mol/L) to obtain a stock solution
(§9) 77 that was further diluted to 6.6×10‒4 mol/L in Dulbecco’s phosphate buffered. […]
(§10) 88 1.3 Tumor volumes in animal cohorts
(§11) 89 Animals with higher initial tumor volume were specifically included in cohorts that received
(§12) 90 epigenetic drugs in order to compensate for the growth-reducing effects of ET and to match
(§13) 91 tumor volumes as closely as possible across cohorts at the time of radiopharmaceutical injection

SSTR2 [2] = conditions: cited from earlier work; for SSTR2 expression (effect): BON-1 cells, monotherapies and combined application; for SSTR2 gene expression (effect): QGP-1 cells
Description: HDAC and DNMT inhibitors can have different impacts depending on the cellular background. For example, in QGP-1 cells, DAC induced, but VPA inhibited SSTR2 gene expression.

MTT tumors = test: Tumor growth of MTT allografts; type: in vivo, mouse; conditions: PET cohorts; for Vtumor, ET start: day 0 baseline, mean ± SEM; for Vtumor, ET start + 4 d: day 4, mean ± SEM
Procedure: as §1, §2, §3, §4, §5, §6, §7, §8, §9, §10, §11, §12, §13

SSTR2 [3] = molecular target: T1, SSTR2 (Mus musculus, UniProt P30875); test: [68Ga]Ga-DOTA-TATE radioligand uptake in cells; type: cell-based; conditions: MPC cells; 37 °C; VPA 10^-3 mol/L; DAC 5×10^-7 mol/L; attributed to cytotoxic effects
T1 construct: endogenous in cells; host or cells: MPC and MTT mouse pheochromocytoma cells (cell homogenates), untreated or treated with VPA + DAC
T1 sequence (P30875 whole entry): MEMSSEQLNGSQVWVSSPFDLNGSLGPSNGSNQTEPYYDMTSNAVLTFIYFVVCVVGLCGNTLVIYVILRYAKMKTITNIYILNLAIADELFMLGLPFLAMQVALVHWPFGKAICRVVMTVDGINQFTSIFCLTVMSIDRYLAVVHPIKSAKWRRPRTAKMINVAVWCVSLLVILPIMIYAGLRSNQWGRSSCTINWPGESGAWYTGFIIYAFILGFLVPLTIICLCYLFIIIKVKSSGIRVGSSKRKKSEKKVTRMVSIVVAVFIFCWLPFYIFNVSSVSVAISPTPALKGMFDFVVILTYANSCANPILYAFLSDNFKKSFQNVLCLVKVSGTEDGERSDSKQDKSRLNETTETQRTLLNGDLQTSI
Procedure: Cells were seeded into collagen-coated microplates or collagen-coated flasks 24 h before epigenetic treatment (ET) start and treated twice (24 h interval) with VPA and DAC, as single and combination doses, respectively. Treatment effects were investigated two to six days (d) after final ET. Preparation of epigenetic drugs is reported in Supplemental Information 1.1.
Radionuclide production and supply are described in Supplemental Information 1.2.
Cells were seeded into collagen-coated 24-well microplates (2.5×10^4/cm^2) and uptake of [^68Ga]Ga-DOTA-TATE was measured three and seven days after ET start. Cells were incubated with fresh cell culture medium containing 0.8 MBq/mL [^68Ga]Ga-DOTA-TATE (Am = 10 MBq/nmol), equivalent to 80 nmol/L, for 60 min at 4 °C or 37 °C. Cells were washed and lysed, and activity of cell lysates was measured as described previously. Total protein in cell lysates was measured using the Qubit protein assay (Thermo Fisher Scientific). Uptake of [^68Ga]Ga-DOTA-TATE was reported as % initial dose per mg of protein.

MPC and MTT cells = test: Viability assay (colorimetric tetrazolium dye); type: cell-based, mouse; conditions: MPC and MTT cells (similar); three days after treatment start; two treatments at 24 h interval
Procedure: Viability of cells seeded into collagen-coated 96-well microplates (6×10^4/cm^2) was measured three days after treatment start using a colorimetric tetrazolium dye assay [39]. Doxorubicin served as positive control.

MPC tumors [4] = type: in vivo, mouse; conditions: MPC
Procedure: During anesthesia, animals were continuously warmed at 37°C. […] Animals were sacrificed using CO2 inhalation and cervical dislocation.
107 (30%), muscle (0%), kidneys (25%), and liver (35%).
116 attenuation. Images were post-processed and analyzed using ROVER (ABX). Three-
118 kidneys (15%), and liver (25%). […]

[5] = [64Cu]Cu-DOTA-TATE, 40‒60 min p.i., day 1 after final ET, control or VPA 250 mg/kg, DAC 1 mg/kg days −3 and 0, mean ± SEM

Row | SMILES | Vtumor, ET start (MPC tumors [1]) [cm3] | Vtumor, ET start + 4 d (MPC tumors [1]) [cm3] | SSTR2 expression (effect) (SSTR2 [2]) | SSTR2 gene expression (effect) (SSTR2 [2]) | Vtumor, ET start (MTT tumors) [cm3] | Vtumor, ET start + 4 d (MTT tumors) [cm3] | [68Ga]Ga-DOTA-TATE uptake (effect) (SSTR2 [3]) | LD50 (MPC and MTT cells) [mol/L] | SUVmean tumor (MPC tumors [4]; [5]) | SUVmax ratio tumor / muscle (MPC tumors [4]; animal 1, 40‒60 min p.i.) | SUVmax tumor (MPC tumors [4]; animal 1, 40‒60 min p.i.) | SUVmean ratio tumor / muscle (MPC tumors [4]; animal 1, 40‒60 min p.i.) | SUVmean tumor (MPC tumors [4]; animal 1, 40‒60 min p.i.) | SUVmax ratio tumor / muscle (MPC tumors [4]; animal 2, 40‒60 min p.i.) | SUVmax tumor (MPC tumors [4]; animal 2, 40‒60 min p.i.) | SUVmean ratio tumor / muscle (MPC tumors [4]; animal 2, 40‒60 min p.i.) | SUVmean tumor (MPC tumors [4]; animal 2, 40‒60 min p.i.) | SUVmax ratio tumor / muscle (MPC tumors [4]; animal 3, 40‒60 min p.i.) | SUVmax tumor (MPC tumors [4]; animal 3, 40‒60 min p.i.) | SUVmean ratio tumor / muscle (MPC tumors [4]; animal 3, 40‒60 min p.i.) | also measured
1 | Nc1ncn([C@H]2C[C@H](O)[C@@H](CO)O2)c(=O)n1 [DAC, 5-Aza-2'-deoxycytidine] | 0.39 ± 0.16 | 0.57 ± 0.18 | increased | induced | 0.23 ± 0.07 | 0.24 ± 0.06 | impairment of [68Ga]Ga-DOTA-TATE uptake; also recorded: reduced radiotracer uptake at 37 °C | 6.3e-07 | 7.38 ± 0.74 | 57.8 | 11.5 | 68.2 | 5.09 | 65.6 | 13.9 | 96.7 | 6.74 | 58.7 | 15.3 | 93.2 | SUVmean tumor (MPC tumors [4]; animal 3, 40‒60 min p.i.): 7.52; SUVmax ratio tumor / muscle (MPC tumors [4]; animal 4, 40‒60 min p.i.): 69.1; SUVmax tumor (MPC tumors [4]; animal 4, 40‒60 min p.i.): 15.2; SUVmean ratio tumor / muscle (MPC tumors [4]; animal 4, 40‒60 min p.i.): 80.6; SUVmean tumor (MPC tumors [4]; animal 4, 40‒60 min p.i.): 7.99; SUVmax ratio tumor / muscle (MPC tumors [4]; animal 5, 40‒60 min p.i.): 67.9; SUVmax tumor (MPC tumors [4]; animal 5, 40‒60 min p.i.): 20.6; SUVmean ratio tumor / muscle (MPC tumors [4]; animal 5, 40‒60 min p.i.): 104; SUVmean tumor (MPC tumors [4]; animal 5, 40‒60 min p.i.): 9.57; SUVmax ratio tumor / muscle (MPC tumors [4]; as SUVmean, mean ± SEM): 63.8 ± 2.35; SUVmax tumor (MPC tumors [4]; as SUVmean, mean ± SEM): 15.3 ± 1.49; SUVmean ratio tumor / muscle (MPC tumors [4]; as SUVmean, mean ± SEM): 88.6 ± 6.39
2 | CCCC(CCC)C(=O)O [VPA, valproic acid] | 0.27 ± 0.13 | 0.46 ± 0.23 | increased | inhibited | 0.14 ± 0.05 | 0.35 ± 0.05 | impairment of [68Ga]Ga-DOTA-TATE uptake; also recorded: reduced radiotracer uptake at 37 °C | 0.0013 | 6.91 ± 1.19 | 33.0 | 8.80 | 60.0 | 4.22 | 60.8 | 10.8 | 67.2 | 5.61 | 78.3 | 19.7 | 91.2 | stimulating effects on SSTR2 expression and [111In]In-DOTA-TATE uptake, reversibility (SSTR2 [2]; one day after VPA withdrawal): largely reversible one day after VPA withdrawal; SUVmean tumor (MPC tumors [4]; animal 3, 40‒60 min p.i.): 8.55; SUVmax ratio tumor / muscle (MPC tumors [4]; animal 4, 40‒60 min p.i.): 65.2; SUVmax tumor (MPC tumors [4]; animal 4, 40‒60 min p.i.): 18.5; SUVmean ratio tumor / muscle (MPC tumors [4]; animal 4, 40‒60 min p.i.): 100; SUVmean tumor (MPC tumors [4]; animal 4, 40‒60 min p.i.): 9.24; SUVmax ratio tumor / muscle (MPC tumors [4]; as SUVmean, mean ± SEM): 59.3 ± 9.54; SUVmax tumor (MPC tumors [4]; as SUVmean, mean ± SEM): 14.5 ± 2.73; SUVmean ratio tumor / muscle (MPC tumors [4]; as SUVmean, mean ± SEM): 79.6 ± 9.53
